This is an account of results in patent publication US20060223888A1, “Valproic acid analogues and pharmaceutical composition thereof” (priority 2002, published 2006).

For data set [1], the system named is rotarod test (neurotoxicity). The data set is described as follows: Rotarod neurotoxicity test (TOX), rats, oral. The data set is classed as in vivo. As to the method:
Anticonvulsant testing was conducted at the antiepileptic screening facility of the National Institute for Neurological Disorders and Stroke in Rockville, Md. Initial tests were done in mice (i.p.) followed by oral and i.p. administration to rats. Neurotoxicity was evaluated with the rotarod test. Maximal electroshock (MES) and subcutaneous methylene tetrazole (SCMET) or pentylene tetrazole (PTZ) were the most common tests performed. Typical procedures are described below.
Rotorod Test. Acute drug induced neurotoxicity is detected in mice using the standard rotorod test. An untreated mouse, when placed on a 6 rpm rotation rod, can maintain its equilibrium for a prolonged period of time.
A number of VPA analogues and their sodium salts were tested for their efficacy as anticonvulsants and for their toxicity using the MES Assay and rotarod test. In particular, the following compounds (as shown in the structures below) were tested: 332059U (sodium salt of VPA), 325071 (known compound, tested for comparison), 325073A (metabolite of VPA), 332060U (4,4-difluoro-2-propylpentanoate, fluorinated analogue of VPA), 341031, and 341032U (conjugated (E,Z)-2,3′-diene VPA analogues).
(The rotarod test checks motor coordination on a turning rod.)

Data set [2] deals with Maximal Electroshock (MES) seizures. The data set is described as follows: Maximal electroshock (MES) test, rats, oral, time to peak effect. It counts as in vivo. Conditions: for Anticonvulsant potency compared with VPA (in words): summary of Table 2. As to the method:
Anticonvulsant testing was conducted at the antiepileptic screening facility of the National Institute for Neurological Disorders and Stroke in Rockville, Md. Initial tests were done in mice (i.p.) followed by oral and i.p. administration to rats. Neurotoxicity was evaluated with the rotarod test. Maximal electroshock (MES) and subcutaneous methylene tetrazole (SCMET) or pentylene tetrazole (PTZ) were the most common tests performed. Typical procedures are described below. MES Assay. Male CD1/CR mice weighing from 25-35 g are administrated test compounds 15 minutes prior to MES. Mice are challenged by pulsed electrical stimulation (50 mA, 0.4 s duration, pulse width 0.5 ms, 60 pulses/sec) via corneal electrodes to induce seizure. Mice are observed post-stimulation for the onset of tonic seizures, and considered to have a tonic seizure only if there is a prolonged extension (>90° from plane of body) of the hind legs. […] Ten mice are used in each group. A number of VPA analogues and their sodium salts were tested for their efficacy as anticonvulsants and for their toxicity using the MES Assay and rotarod test.
(Protection in the maximal electroshock model is a classic sign of anticonvulsant action.)

The test system of data set [3] is Subcutaneous Methylene Tetrazole (SCMET) seizures. The data set is described as follows: Subcutaneous methylene tetrazole (SCMET) test, rats, oral, time to peak effect. The data set is classed as in vivo.
Data set [4] relates to PTZ-induced clonic seizures. Put plainly: PTZ85 assay, latency of clonic seizures. Conditions: 1800 micromoles, male cd1/cr mice. The data set is classed as in vivo. The procedure:
SCMET (PTZ85) Assay. Male CD1/CR mice weighing from 25-35 g are administrated test compounds (range of 5 doses) 15 minutes prior to PTZ. PTZ is administrated subcutaneously, just caudal to the cranium, at a dose of 85 mg/kg. Animals are then caged individually and observed for 15 minutes. The occurrence and latency to clonic and/or tonic convulsions are recorded. The mice are used once. Ten mice are used in each dose group. […] ED50 is determined from a graph of percentage protection vs log(dose) following the known method of Litchfield^18, where percentage protection refers to the percent of animals in each dose group which are protected against seizures. The compounds of interest were tested at an equivalent dose of 1800 micromoles on male cd1/cr mice using the PTZ85 Assay to induce clonic (repetitive seizures). Both the latency (time of seizure onset) and the number of animals protected increased with the size of the ring, or with increased lipophilicity.

On to `O=C(O)/C=C/C=C1CCCC1` [Compound 41a, (2E)-4-Cyclopentylidenebut-2-enoic Acid], for which the melting point – broadly, the temperature, or range, at which the solid turns liquid – lay within 112 to 114 °C.

As for `CC/C=C(\C=C(C)C)C(=O)[O-].[Na+]` [341032U, Sodium (2E)-2-(2-methylprop-1-en-1-yl)pent-2-enoate], the “TOX: N/F = number of animals that failed the rotarod test to numbers tested” value (shortened to “TOX: N/F = number”) in data set [1] (200 mg/kg, 0.25 h) is recorded as 3/4; in data set [1] (200 mg/kg, 0.5 h), 4/4; in data set [1] (200 mg/kg, 1.0 h) it was 1/4; in data set [1] (200 mg/kg, 2.0 h), 0/4; in data set [1] (200 mg/kg, 4.0 h), 0/4. Besides, the “MES N/F = number of animals protected relative to number tested” value in data set [2] (200 mg/kg, 0.25 h) is 4/4; in data set [2] (200 mg/kg, 0.5 h), 3/4; in data set [2] (200 mg/kg, 1.0 h) it was 1/4; in data set [2] (200 mg/kg, 2.0 h) it was 0/4; in data set [2] (200 mg/kg, 4.0 h), 0/4. In data set [2], the “Anticonvulsant potency compared with VPA (in words)” value is listed as “more potent than VPA”.

In the case of `O=C(O)/C=C\C=C1CCCCCCC1` [Compound 42d, (2Z)-4-Cyclooctylidenebut-2-enoic Acid], the melting point is 110 to 112 °C.

For the compound `CCCC(CC(C)(F)F)C(=O)[O-].[Na+]` (stereo not shown) [332060U, Sodium 4,4-difluoro-2-propylpentanoate], the “TOX: N/F = number” value is 0/4 in data set [1] (100 mg/kg, 0.25 h); 0/4 in data set [1] (100 mg/kg, 0.5 h); 0/4 in data set [1] (100 mg/kg, 1.0 h); 0/4 in data set [1] (100 mg/kg, 2.0 h); 0/4 in data set [1] (100 mg/kg, 4.0 h); 0/4 in data set [1] (200 mg/kg, 0.25 h). Moreover, the “TOX: N/F = number” value in data set [1] (200 mg/kg, 0.5 h) is 0/4; in data set [1] (360 mg/kg, 0.25 h), 0/4; in data set [1] (360 mg/kg, 0.5 h), 0/4; in data set [1] (360 mg/kg, 1.0 h), 0/4; in data set [1] (360 mg/kg, 2.0 h), 0/4; in data set [1] (360 mg/kg, 4.0 h), 0/4. Further, the “SCMET N/F = number of animals protected relative to number tested” value in data set [3] (100 mg/kg, 0.25 h) is reported as 1/4; in data set [3] (100 mg/kg, 0.5 h) it was 1/4; in data set [3] (100 mg/kg, 1.0 h), 0/4; in data set [3] (100 mg/kg, 2.0 h) it was 0/4; in data set [3] (100 mg/kg, 4.0 h), 0/4; in data set [3] (200 mg/kg, 0.25 h), 1/4. The “SCMET N/F = number of animals protected relative to number tested” value is 1/4 in data set [3] (200 mg/kg, 0.5 h); 3/4 in data set [3] (360 mg/kg, 0.25 h); 0/4 in data set [3] (360 mg/kg, 0.5 h); 2/4 in data set [3] (360 mg/kg, 1.0 h); 1/4 in data set [3] (360 mg/kg, 2.0 h); 0/4 in data set [3] (360 mg/kg, 4.0 h). Moreover, the “Anticonvulsant efficacy in relation to neurotoxicity (in words)” value in data set [3] (summary of Table 2) is given as “effective at doses that do not demonstrate neurotoxicity”.

Consider `O=C([O-])/C=C/C=C1CCCCCCC1.[Na+]`, for which, in data set [4], the “Latency of Clonic Seizures” value came out at 855 s and the “Number of Mice Protected Against Clonic Seizures (Out of 10)” value (“Number … (Out of 10)” for short) was found to be 9.

As to `C/C=C\C(=C/C)C(=O)[O-].[Na+]` [325071A, Sodium (2E,3Z)-2-ethylidenpent-3-enoate], the “TOX: N/F = number” value in data set [1] (200 mg/kg, 0.25 h) is listed as 0/8; in data set [1] (200 mg/kg, 0.5 h), 0/8; in data set [1] (200 mg/kg, 1.0 h) it was 0/8; in data set [1] (200 mg/kg, 2.0 h) it was 0/8; in data set [1] (200 mg/kg, 4.0 h), 0/4. Besides, the “SCMET N/F = number of animals protected relative to number tested” value is reported as 0/4 in data set [3] (80 mg/kg, 0.25 h); 0/4 in data set [3] (80 mg/kg, 0.5 h); 1/4 in data set [3] (80 mg/kg, 1.0 h); 0/4 in data set [3] (80 mg/kg, 2.0 h); 0/4 in data set [3] (80 mg/kg, 4.0 h); 2/4 in data set [3] (200 mg/kg, 0.25 h). In addition, the “SCMET N/F = number of animals protected relative to number tested” value in data set [3] (200 mg/kg, 0.5 h) was 0/4; in data set [3] (200 mg/kg, 1.0 h), 0/4; in data set [3] (200 mg/kg, 2.0 h), 1/4; in data set [3] (200 mg/kg, 4.0 h) it was 1/4. Moreover, the “MES N/F = number of animals protected relative to number tested” value in data set [2] (80 mg/kg, 0.25 h) is listed as 0/4; in data set [2] (80 mg/kg, 0.5 h), 0/4; in data set [2] (80 mg/kg, 1.0 h), 0/4; in data set [2] (80 mg/kg, 2.0 h), 0/4; in data set [2] (80 mg/kg, 4.0 h), 0/4; in data set [2] (200 mg/kg, 0.25 h), 0/4. Besides, the “MES N/F = number of animals protected relative to number tested” value in data set [2] (200 mg/kg, 0.5 h) is on record as 1/4; in data set [2] (200 mg/kg, 1.0 h) it was 0/4; in data set [2] (200 mg/kg, 2.0 h), 1/4; in data set [2] (200 mg/kg, 4.0 h), 0/4.

In turn, `O=C(O)/C=C\C=C1CCCCCC1` [Compound 42c, (2Z)-4-Cycloheptylidenebut-2-enoic Acid] yielded a melting point of 86 to 88 °C.

For `O=C([O-])/C=C/C=C1CCCCCC1.[Na+]`, in data set [4], the “Latency of Clonic Seizures” value was found to be 778 s and the “Number … (Out of 10)” value turned out to be 7.

`O=C(O)/C=C/C=C1CCCCCCC1` [Compound 41d, (2E)-4-Cyclooctylidenebut-2-enoic Acid] had a melting point of 114 to 116 °C.

On to `O=C([O-])/C=C/C=C1CCCCC1.[Na+]`, for which, in data set [4], the “Latency of Clonic Seizures” value is 661 s and the “Number … (Out of 10)” value was 4.

Consider `C/C=C\C(=C/C(C)C)C(=O)[O-].[Na+]` [341031U, Sodium (2E)-4-methyl-2-[(1Z)-prop-1-en-1-yl]pent-2-enoate], for which the “TOX: N/F = number” value in data set [1] (200 mg/kg, 0.25 h) was 0/4; in data set [1] (200 mg/kg, 0.5 h), 0/4; in data set [1] (200 mg/kg, 1.0 h), 0/4; in data set [1] (200 mg/kg, 2.0 h), 0/4; in data set [1] (200 mg/kg, 4.0 h) it was 0/4. Moreover, the “MES N/F = number of animals protected relative to number tested” value in data set [2] (200 mg/kg, 0.25 h) is reported as 3/4; in data set [2] (200 mg/kg, 0.5 h), 2/4; in data set [2] (200 mg/kg, 1.0 h), 0/4; in data set [2] (200 mg/kg, 2.0 h), 0/4; in data set [2] (200 mg/kg, 4.0 h), 0/4. Besides, the “Anticonvulsant potency compared with VPA (in words)” value in data set [2] is “more potent than VPA”.

As for `O=C(O)/C=C/C=C1CCCCCC1` [Compound 41c, (2E)-4-Cycloheptylidenebut-2-enoic Acid], the melting point fell in the range of 88 to 89 °C.

In turn, `O=C(O)/C=C/C=C1CCCCC1` [Compound 41b, (2E)-4-Cyclohexylidenebut-2-enoic Acid] yielded a melting point of 132 to 134 °C.

With `O=C([O-])/C=C/C=C1CCCC1.[Na+]`, in data set [4], the “Latency of Clonic Seizures” value was 589 s and the “Number … (Out of 10)” value is listed as 2.

`O=C(O)/C=C\C=C1CCCC1` [Compound 42a, (2Z)-4-Cyclopentylidenebut-2-enoic Acid] came in with a melting point of 105 to 107 °C.

As to `O=C(O)/C=C\C=C1CCCCC1` [Compound 42b, (2Z)-4-Cyclohexylidenebut-2-enoic Acid], the melting point fell in the range of 121 to 123 °C.
